For data set [1], the system named is histone H3 lysine 9 acetylation in H358 cells. As to the kind of experiment: Western analysis of histone H3 lysine 9 acetylation/methylation. It counts as cell-based. The note with it: for suppression of histone H3K9 acetylation: 50 μM, 12 hours post start of treatment. On the procedure: (§1) (A) Structures of 1a, and the acetylated side chain of a lysine residue within the polypeptide chain of a protein targeted by the acetylating enzyme (R1 and R2 are the main chain elements on both sides of the lysyl residue). (B) [^3H]-thymidine incorporation into DNA of H358 cells pulsed for 6 hrs at three different time points after the addition of increasing concentrations of 1a, i.e., at 6-12 hrs (12 hr curve), at 18-24 hours (24 hr curve), or at 42-48 hrs (48 hr curve). Incorporation is represented as a percentage relative to control (untreated) cells. (C) Cell cycle analysis of propidium iodide-stained cells harvested at various times after addition of 50 μM 1a. % of cells in G1, S, and G2 represents the average of two independent profiles. (D) Western analysis of histone H3 lysine 9 acetylation, histone H3 lysine 56 acetylation, histone H3 lysine 9 methylation, and total histone H3, before “c” or at the indicated times after addition of 50 μM 1a. Each lane represents 60 μg cellular protein.
Each lane represents 175 μg cell lysate protein.
One 6 cm culture dish of H358 cells per treatment was used. Cells were treated with 50 μM spm-2, spm-3, or spd-3a for 12 hours. Histones were extracted from cells in 0.2M H2SO4 (as described in Furuta, T., et al (2003) J. Biol. Chem. 278: 20303-20312), followed by SDS-PAGE and Western blotting. Blots were probed with anti-acetyl histone H3-lysine 9 (Upstate Biotechnology, Inc.)
Cells were lysed by adding 1 mL of 0.2 M H2SO4. Histones were recovered as described in reference. SDS-PAGE/Western analysis was carried out as previously described using rabbit monoclonal antibody to total histone H3, rabbit polyclonal anti-trimethyl histone H3 (lysine 9), and anti-acetyl histone H3 (lysine 9). All antibodies were purchased from Upstate Biotechnology Inc. (Lake Placid, N.Y.).
In FIG. 2D, we carried out an immunoblot analysis of total histone H3, histone H3 acetylated on lysine 9 (H3-K9Ac), histone H3 acetylated on lysine 56 (H3-K56Ac) and histone H3 methylated on lysine 9 (H3-MeK9) in H358 cells, before treatment, and after 1, 12, 18, and 24 hours of treatment with 50 μM 1a. […] Acetylation levels are restored by 24 hours.
One 10-cm plate of H358 lung cancer cells (about 2×10^6 cells), grown in DMEM+10% Fetal bovine serum as described in reference, were treated for 24 hours with 50 μM1a inhibitor. Cells lysates were prepared as we have previously described (Lee C, et al., 2005, Cancer Res 65:9834-9842). Treated cells and untreated (control) cells were harvested by lysing in buffer containing 10 mM Hepes pH 7.5, 100 mM NaCl, 300 mM sucrose, 3 mM MgCl2, 1 mM EDTA, 1 mM DTT, 0.5% Triton X-100, 1 mM PMSF, protease inhibitor pellet (Roche) and analyzed on 10% SDS-PAGE gels, followed by Western immunoblot analysis of total histone H3, methylated histone H3 (methylated on lysine 9), and acetylated histone H3 (acetylated on lysine 9). […] Histone H3 methylation was not affected.

Another data set relates to H358 lung cancer cells. As to the kind of experiment: [3H]-thymidine incorporation DNA synthesis assay. It counts as cell-based. Particulars: for inhibition of DNA synthesis, single agent (FIG. 25): 1, 10 or 50 μM for 12 hours. As to the method:
as §1
Control cells were left untreated. […] Control cells were left untreated.
Cells were either labeled immediately before treatment (starting DNA synthesis rate), or subjected to the indicated treatments and then pulsed on successive days until day 4. DNA synthesis is represented as the percent of starting DNA synthesis rate. Viability was determined for each treatment condition 24 hours post-start of treatment by the trypan blue exclusion assay, with percentages of viable cells indicated to the right of the graph.
H358 cells (2,000/well) in 96-well plates were treated with 1, 10 or 50 μM of spd-1a, spd-2a, spd-3a, spm3, or spm2 for 12 hours. Triplicate wells of cells were pulsed 6 hours with 0.5 μCi [^3H]-thymidine (NEN, Boston Mass.) post-start of drug treatment, and harvested onto filter paper using a Brandel Harvester and subjected to scintillation counting. Untreated cells were pulsed 0-6 hrs to establish the initial rate of incorporation.
Cells were plated in 96-well plates (2000 cells per well to insure conditions for exponential growth for untreated cells over the time course of the experiment) and exposed to the following treatments: 1a (50 μM); camptothecin (Sigma, St Louis, Mo. 5 nM, 18 hours); cisplatin (Platinol, obtained through local pharmacies, 2 μM, 1 hour 15 minutes), 5-fluorouracil (5FU, Adrucil™, obtained through local pharmacies, 2 μM, 1 hour 15 minutes), Taxotere (provided by the late Dr. Pierre Potier, 5 nM, 18 hours). UVC treatment (40 J/m^2) using a Stratalinker™, Stratagene, La Jolla, Calif.) was carried using medium lacking phenol red. At 0-6 hr, 18-24 hr (day 1), 42-48 hr […], 66-72 hr (day 3), and 90-96 hr (day 4) post-start of treatment, triplicate wells were incubated with 0.5 μCi [^3H]-thymidine (NEN, Boston Mass.), harvested onto filter paper, and subjected to scintillation counting. Trypan blue exclusion assays for cell membrane integrity were carried out as known in the art.
The present inventors used [^3H]-thymidine incorporation assays to examine DNA synthesis in H358 lung cancer cells in the presence of varying concentrations of 1a. Cells were pulsed for 6 hours with [^3H]-thymidine at three different time points after the addition of 1a (i.e., at 6-12 hours, at 18-24 hours, and at 42-48 hours). The incorporation of [^3H]-thymidine into DNA decreased with increasing concentrations of 1a at all three time points, with the maximal effect occurring with the 6-12 hour pulse (FIG. 2B).
We then used [^3H]-thymidine incorporation assays to examine DNA synthesis in H358 lung cancer cells in the presence of 1a alone, or together with an 18 hour exposure to the DNA damaging drug, camptothecin (CPT), a plant alkaloid from which an important class of topoisomerase I-targeted chemotherapeutic agents (Hycamtin [topotecan] and Camptosar [irinotecan]) has been derived (Garcia-Carbonero, et al, 2002, Clin Cancer Res 8: 641-61). […]
On the technique in general: Dividing cells build labelled thymidine or BrdU into new DNA.

A value given as a limit tells only on which side of the number the result lay.

As for `CC(=O)NCCSCC(=O)NCCCNCCCCN` [3a], the entries for the “suppression of histone H3K9 acetylation” value in data set [1] and in data set [1] (listed as spd-3a) were “nearly complete ablation of histone H3K9 acetylation” and “suppress histone acetylation”, respectively. Also, the “inhibition of DNA synthesis, single agent (FIG. 25)” value in the data set with H358 lung cancer cells was “inhibit DNA synthesis”. The “suppression of DNA synthesis in combination with camptothecin” value in the data set on H358 lung cancer cells (3a + CPT 5 nM 18 hours, pulse from 42 hours) was “effective”.

Turning to `CC[C@@]1(O)C(=O)OCc2c1cc1n(c2=O)Cc2cc3ccccc3nc2-1` [camptothecin], in the data set on H358 lung cancer cells (1a 50 μM, camptothecin 5 nM (18 or 24 h)), the “effect on [3H]-thymidine incorporation, single agent” value is given as “no detectable effect”.

Usually IC50 stands for the concentration at which inhibition is half-maximal. As to `CC(C)(COP(=O)(O)OP(=O)(O)OC[C@H]1O[C@@H](n2cnc3c(N)ncnc32)[C@H](O)[C@@H]1OP(=O)(O)O)[C@@H](O)C(=O)NCCC(=O)NCCSCC(=O)NCCCNCCCCN` [1a, spermidine[N1]-CoA], the “effect on histone H3 lysine 9 methylation” value in data set [1] (50 μM 1a) is given as “no effect”. Moreover, the “histone H3 lysine 9 acetyl groups lost” value is given as “over 50%” in data set [1] (50 μM 1a, within 1 hour) and around 98% in data set [1] (50 μM 1a, within 12 hours). Besides, the “histone H3 K9 acetyl groups lost” value in data set [1] (Example 1: 50 μM 1a, 24 hours, cell lysate) was “over 80%”. Also, the “sensitization to cisplatin (CDDP), UVC irradiation and 5-FU in DNA synthesis assay” value in the data set on H358 lung cancer cells (50 μM 1a + cisplatin 2 μM, UVC 40 J/m2 or 5FU 2 μM) was “sensitized”. Besides, the activity at 50 µM with H358 lung cancer cells (Homo sapiens, NCI-H358, 50 μM 1a + 5 nM camptothecin (18 h), 48 hours post-initiation, read-out: [3H]-thymidine incorporation, % of control incorporation) was below 20%. Moreover, the IC50 in the data set on H358 lung cancer cells (Homo sapiens, NCI-H358, 6-12 hour [3H]-thymidine pulse, read-out: IC50 for inhibition of DNA synthesis) fell in the range of 50 to 100 µM.

On to `CC(=O)NCCSCC(=O)NCCCNCCCCNCCCN` [spm-3], for which, in data set [1], the “suppression of histone H3K9 acetylation” value is “suppress histone acetylation”. Moreover, the “inhibition of DNA synthesis, single agent (FIG. 25)” value with H358 lung cancer cells was “inhibit DNA synthesis”.

For the origin of these results see US9107879B1, “Methods of increasing the cytotoxicity of chemotherapeutic agents with multisubstrate inhibitors of histone, protein-lys, polyamine acetylation, and polyamine metabolism” (Vanderbilt University, priority 2010, dated 2015).
